Marks after values point to notes of the source that are not given here.
Assays:
human serum albumin = human serum albumin (Homo sapiens, UniProt P02768); settings: cited from earlier work
albumin = albumin (Homo sapiens, UniProt P02768); settings: drugs which bind to albumin at site 1; cited from earlier work
[1] = molecular target: T1, albumin of PESDA microbubbles (Homo sapiens, UniProt P02768); experiment: Partitioning of 35S-labeled PS-ODN between PESDA microbubble top layer and lower layer, liquid scintillation counting; type: binding; settings: for BOTTOM / TOP: N 6; for TOP: top layer containing microbubbles
T1 construct: commercially available albumin (human), U.S.P. solution (generally supplied as 5% or 25% by weight sterile aqueous solutions); purchased
T1 sequence (P02768 25-609): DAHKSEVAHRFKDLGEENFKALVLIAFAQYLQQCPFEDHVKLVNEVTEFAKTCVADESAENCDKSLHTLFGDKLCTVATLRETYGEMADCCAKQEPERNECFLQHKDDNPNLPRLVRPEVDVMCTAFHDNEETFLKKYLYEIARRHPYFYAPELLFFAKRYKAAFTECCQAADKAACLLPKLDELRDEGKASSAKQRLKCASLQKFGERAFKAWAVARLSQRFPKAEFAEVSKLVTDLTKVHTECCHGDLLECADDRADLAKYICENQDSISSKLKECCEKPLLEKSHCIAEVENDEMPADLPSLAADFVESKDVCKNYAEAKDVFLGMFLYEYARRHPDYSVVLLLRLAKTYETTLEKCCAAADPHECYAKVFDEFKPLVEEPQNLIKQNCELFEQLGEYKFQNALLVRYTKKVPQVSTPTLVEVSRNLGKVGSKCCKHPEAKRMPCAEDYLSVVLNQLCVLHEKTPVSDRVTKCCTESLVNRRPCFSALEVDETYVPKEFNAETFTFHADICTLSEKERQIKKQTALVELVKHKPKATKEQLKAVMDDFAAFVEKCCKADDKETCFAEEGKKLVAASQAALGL
Procedure: Radiolabeled oligonucleotides were synthesized as hydrogen phosphonate material by Glen Research (Bethesda, Md.) The uniformly ^35S-labeled PS-ODN with sequences 5′-TATGCTGTGCCGGGGTCTTCGGGC 3′ (24-mer complementary to c-myb) (SEQ ID NO:2) and 5′ TTAGGG 3′ (SEQ ID NO:3) were incubated in a final volume of 0.5 ml with the perfluorocarbon-exposed sonicated dextrose albumin microbubble solution for 30 minutes at 37° C. The solutions were allowed to stand so that the bubbles could rise to the top and 100 microliters were removed from the clear solution at the bottom and 100 microliters were removed from the top containing the microbubbles.
Five percent human serum albumin and five percent dextrose were obtained from a commercial source. Three parts of 5% dexticse and one part 5% human serum albumin (total 16 milliliters) were drawn into a 35-milliliter Monojet syringe. Each dextrose albumin sample was hand agitated with 8±2 milliliters of either a fluorocarbon gas (decafluorobutane; molecular weight 238 grams/mole) or 8±2 milliliters of room air, and the sample was then exposed to electromechanical sonication at 20 kilohertz for 80±5 seconds. The mean size of four consecutive samples of the perfluorocarbon-exposed sonicated dextrose albumin (PESDA) microbubbles produced in this manner, as measured with hemocytometry was 4.6±0.4 microns, and mean concentration, as measured by a Coulter counter was 1.4×10^9 bubbles/milliliter. The solution of microbubbles was then washed in a 1000 times volume excess of 5% dextrose to remove albumin which was not associated with the microbubbles. The microbubbles were allowed four hours to rise. The lower solution was then removed leaving the washed foam. The washed foam was then mixed with 0.9% sodium chloride.
Radioactivity in solutions were determined by liquid scintillation counting in a liquid scintillation counter (model LSC7500; Beckman Instruments GmbH, Munich, Germany). The sample volume was 100 μl to which 5 ml of Hydrocount biodegradable scintillation cocktail was added and mixed. Samples were counted immediately after each experiment and then again 24 hours later in order to reduce the influence of chemiluminescence and of quenching.

cytochrome P450 IIB1 = experiment: Hexobarbital sleep time and biodistribution in rats given antisense oligos to cytochrome P450 IIB1 with or without PESDA microbubbles; type: in vivo, rat; settings: PB alone × 2 days, 100 mg/kg HB i.p., control rats about 23 minutes
Procedure: The oligonucleotides were conjugated to perfluoropropane exposed sonicated dextrose albumin microbubbles (PESDA) as earlier described and delivered to rats intravenously.
Male Sprague-Dawley rats (Sasco, Omaha), were used and weighed between 210 to 290 grams for all studies. […] The animals were exposed to 12 hour light/dark cycle and allowed access to Purina rat chow and tap water ad libitum.
Rats in groups with PB were injected intraperitoneally with phenobarbital (Mallinckrodt, St. Louis) at 80 ml/kg/day×2 days. The PB injections were given simultaneously with the ODN-microbubble injections. Phosphorothioate ODN injections were 1 ml/kg/day×2 days. Sleep times were measured 48 hours after the first injection. The rats were injected intraperitoneally with 100 ml/kg hexobarbital (Sigma, St. Louis), paired fresh daily. The volume of this injection is 1 ml/kg body weight.
Each rat was injected with 100 mg/kg of hexobarbital intraperitoneally. The animals were placed on their backs to insure that they were still under sedation from the hexobarbital. Sleep time is defined as the time they are placed on their backs to the time when they roll over. The sleep times listed are the mean of each animal in the group±standard deviation.
As described earlier, 100 mg/kg HB was injected i.p. to each animal at the end of 2 days of treatment with PB and/or the ODNs.

[2] = bubbles in the presence of free albumin
[3] = bubbles in the presence of free albumin, lower clear layer
[4] = washed bubbles (no free albumin)
[5] = washed bubbles (no free albumin), lower layer

Sequence of albumin (P02768 25-609): as the sequence (P02768 25-609) above
Sequence of human serum albumin (P02768 25-609): as the sequence (P02768 25-609) above

With 5′d(AACGTTGAGGGGCAT)-3′ [15 mer PS-ODN] as the compound, how does the “binding to human serum albumin in solution (dissociation constant range)” value (human serum albumin) read?
The value was 3.7−4.8×10−5.

Which “% Albumin Binding” value (albumin) does the source give for `O=C1NC(=O)C(c2ccccc2)(c2ccccc2)N1` [Phenytoin] here?
Its value is 89.0%.

For “5′-TATGCTGTGCCGGGGTCTTCGGGC 3′ (antisense TATGCTGTGCCGGGGTCTTCGGGC; phosphorothioate backbone, 35S label, further chemistry not given here) [c-myb, uniformly 35S-labeled PS-ODN, 24-mer complementary to c-myb]”, which “RATIO T/B” value [1, 2] is on record?
The value was 1.35.

What about the BOTTOM [1, 3] of the same compound?
The BOTTOM was 77.3 ± 1.2 cpm/μl.

What about the TOP [1, 2] of the same compound?
Its TOP is 94.1 ± 17.6 cpm/μl.

What about the “RATIO T/B” value [1, 4] of the same compound?
Its value is 2.16.

What about the BOTTOM [1, 5] of the same compound?
Its BOTTOM is 92.7 ± 15.7 cpm/μl.

And the TOP [1, 4]?
Its TOP is 200.3 ± 37.4 cpm/μl.

With `CCC1(c2ccccc2)C(=O)NC(=O)NC1=O` [PB, phenobarbital] as the compound, how does the sleep time (cytochrome P450 IIB1) read?
The sleep time was “about 11.4±4.5 minutes”.

For `CO/N=C(\C(=O)N[C@@H]1C(=O)N2C(C(=O)O)=C(CSc3nc(=O)c(=O)[nH]n3C)CS[C@H]12)c1csc(N)n1` [Ceftriaxone], which “% Albumin Binding” value (albumin) is on record?
Its value is 90–95* %.

Which “% Albumin Binding” value (albumin) does the source give for `Clc1ccc(COC(Cn2ccnc2)c2ccc(Cl)cc2Cl)c(Cl)c1` (stereo not drawn) [Miconazole] here?
The value was 90.7–93.1* %.

Which “% Albumin Binding” value (albumin) does the source give for `CCCC(CCC)C(=O)O` [Valproic Acid] here?
Its value is 93.0%.

With 5′ TTAGGG 3′ as the compound, how does the “RATIO T/B” value [1, 2] read?
Its value is 1.35.

What about the BOTTOM [1, 3] of the same compound?
The BOTTOM was 92.3 ± 6.4 cpm/μl.

And the TOP [1, 2]?
Its TOP is 125 ± 6.4 cpm/μl.

What about the “RATIO T/B” value [1, 4] of the same compound?
The value was 1.67.

And the BOTTOM [1, 5]?
Its BOTTOM is 126 ± 8.7 cpm/μl.

What about the TOP [1, 4] of the same compound?
Its TOP is 210 ± 10.8 cpm/μl.

For `Cc1noc(NS(=O)(=O)c2ccc(N)cc2)c1C` [Sulfisoxazole], which “% Albumin Binding” value (albumin) is on record?
The value was 91.4%.

Which “% Albumin Binding” value (albumin) does the source give for `CN1C(C(=O)Nc2ccccn2)=C(O)c2ccccc2S1(=O)=O` [Piroxicam] here?
The value was 99.3%.

For `NS(=O)(=O)c1cc(C(=O)O)c(NCc2ccco2)cc1Cl` [Furosemide], which “% Albumin Binding” value (albumin) is on record?
Its value is 98.8%.

Reference: US7198949B2, “Compositions and methods for altering the biodistribution of biological agents” (Board of Regents of the University of Nebraska, priority 1996, dated 2007)
